Measured values taken from patent US12303551B2, “Cellular immunotherapy compositions and uses thereof” (CERO THERPEUTICS HOLDINGS, INC., priority 2018, dated 2025).

System: HCC827 NSCLC cells
Assay: FACS phagocytosis assay of TAMRA-SE labeled HCC827 cells with or without bafilomycin
Type: cell-based
Settings: 20 nM added to co-culture
Description: FIGS. 73A-73B show ablation of CER-induced phagocytosis by bafilomycin, an inhibitor of phagolysosome V-ATPase. CER104-modified CD4+ T cells and mock transduced CD4+ T cells (control) were co-cultured with HCC827 cells that were labeled with TAMRA-SE fluorescent dye and treated with osimertinib. Phagocytosis was quantified by FACs.
T cells were transduced with lentiviral vector comprising hCER104 nucleic acid as described in Example 6. hCER104 modified T cells were co-cultured with HCC827 adenocarcinoma cells with or without osimertinib. […] FACs plots from in vitro phagocytosis assays in hCER104 modified T cells or mock transduced control T cells are shown in FIG. 73B.

In the case of `CO/C1=C\C(C)=C\[C@@H](C)[C@@H](O)[C@@H](C)C/C(C)=C/C=C/[C@H](OC)[C@@H]([C@@H](C)[C@@H](O)[C@H](C)[C@@]2(O)C[C@@H](O)[C@H](C)[C@@H](C(C)C)O2)OC1=O` [bafilomycin, reference compound], the “effect on uptake of labeled HCC827 cells by hCER104 modified T cells” value is reported as “blocked uptake”.
